Test results taken from patent publication US12655141B2, “Inhibitors of notch signaling pathway and use thereof in treatment of cancers” (Cellestia Biotech AG, priority 2019, dated 2026).

Tests used:
cMYC [1] = assay: Jess western blot of RPMI8402 protein lysates: cMYC; format: cell-based, human; conditions: RPMI8402, 1 μM, 24 hours, 37° C
Procedure: (§1) One million human NOTCH positive T-ALL cell line RPMI8402 were treated with NOTCH targeting compounds at 1 μM concentration for 24 hours. Following treatment cells were harvested and washed with 1×PBS. Total RNA and total protein lysates were extracted as described below.
(§2) Cells were lysed in RIPA buffer (50 mM Tris·Cl, pH 7.5, 150 mM NaCl, 1% nonidet P-40, 0.5% sodium deoxycholate and 0.1% SDS) for 30 minutes at 4° C. Lysed cells were centrifuged to remove the debris at 14000 rpm at 4° C. Supernatant was transferred to a new eppendorf tube. The protein concentration was determined by Bradford assay using spectrophotometer (Ultrospec 3000 pro).
(§3) Later on western blotting was carried out using Jess (ProteinSimple, biotechne). Samples containing 0.8 μg protein was denatured in loading buffer containing DTT by heating at 95° C. for 5 minutes. Samples were run on 12-230 kDa gel matrix, with incubation time for primary and secondary antibodies of 1 hour and 30 minutes, respectively. Data were analysed using Compass for SW (ProteinSimple, biotechne) software.
(§4) Total protein lysates were analysed by Jess western blot analysis using N1-ICD (cleaved and active NOTCH1 Intracellular Domain), cMYC and GAPDH specific antibodies.

[2] = test system: NOTCH positive/driven human T cell acute lymphoblastic leukemia cell line RPMI 8402; assay: PrestoBlue anti-proliferative assay; format: cell-based; conditions: for IC50: Homo sapiens, RPMI 8402, RPMI8402, 72 hours, concentration range 0.03-100 μM; for fold change compared to 6-(4-tert-butylphenoxy)pyridin-3-amine (anti-proliferative IC50): RPMI8402, 72 hours
Procedure: (§5) Alamarblue® and PrestoBlue proliferation assays were performed to determine the growth kinetics of Notch inhibitor treated cells. Alamar Blue® and PrestoBlue consists of a cell permeable substrate resazurin. In metabolically active and proliferating cells, resazurin is converted to resorufin due to an intrinsic reducing power of live cells and produces a red fluorescence. Therefore production of resorufin serves as an indicator of the viability of the cell population.
Proliferation assays were performed by seeding 5000 cells/well in a 96 well plate. […] Each concentration was tested in 4 replicates. To determine the growth kinetics, 10 μl of Alamar Blue® or PrestoBlue (Invitrogen) was added to each well and incubated for 4 hours. Readout was taken using Tecan F500 (Tecan) multiplate reader or Varioskan LUX (ThermoFisher) multiplate reader.
(§6) In order to determine anti-cancer potency of compounds compared to 6-(4-tert-butylphenoxy)pyridin-3-amine (described in WO2013/093885), NOTCH positive/driven human T cell acute lymphoblastic leukemia cell line RPMI 8402 was treated with selected compounds.

[3] = test system: NOTCH positive/driven human T cell acute lymphoblastic leukemia cell line RPMI 8402; assay: Alamar blue anti-proliferative assay; format: cell-based; conditions: for IC50: Homo sapiens, RPMI 8402, RPMI8402, 72 hours, concentration range 0.01-10 μM
Procedure: as §5
Proliferation assays were performed by seeding 5000 cells/well in a 96 well plate. Cells were treated with DMSO or compounds for 72 hours using concentration ranges of 0.01-10 μM. Each concentration was tested in 4 replicates. To determine the growth kinetics, 10 μl of Alamar Blue® or PrestoBlue (Invitrogen) was added to each well and incubated for 4 hours. Readout was taken using Tecan F500 (Tecan) multiplate reader or Varioskan LUX (ThermoFisher) multiplate reader.
as §6

[4] = test system: N1-ICD (cleaved and active NOTCH1 Intracellular Domain); assay: Jess western blot of RPMI8402 protein lysates: N1-ICD; format: cell-based, human; conditions: RPMI8402, 1 μM, 24 hours, 37° C
Procedure: as §1, §2, §3, §4

[5] = test system: N1-ICD (cleaved and active NOTCH1 Intracellular Domain); assay: Western blot of RPMI8402 protein lysates: N1-ICD; format: cell-based, human; conditions: NOTCH positive leukemic cells, 1 μM, 24 hours, FIGS. 2 and 3
Procedure: as §1, §2
(§7) Initially for western blotting, 40 μg of protein were denatured in 1×SDS gel loading buffer (100 mM Tris·Cl, pH 6.8, 200 mM DTT, 4% SDS, 0.2% bromophenol, 20% glycerol) by heating at 99° C. for 5 minutes. Denatured protein samples were stored on ice until loading on to the acrylamide gel. The samples were run on 8% or 10% acrylamide gel in Tris-glycine electrophoresis buffer (25 mM Tris, 250 mM glycine, 0.1% SDS). Following separation on the acrylamide gel, protein samples were transferred on to PVDF membrane (PEQ lab, catalog number 39-3010) using transfer buffer (39 mM glycine, 48 mM Tris base, 0.037% SDS and 20% methanol).
(§8) For immunoblotting, membranes were blocked with 5% milk and incubated overnight with primary antibodies at 4° C. Membrane were washed with 1×TBST (1×TBS+0.5 tween 20) for 5 minutes (3 times) and incubated with HRP-conjugated secondary antibodies for one hour at room temperature. Signal was detected with Super Signal West chemiluminescent substrate (Thermo Scientific, catalog number 34077).
(§9) Total protein lysates were analysed by western blot analysis using N1-ICD (cleaved and active NOTCH1 Intracellular Domain), cMYC and ACTIN specific antibodies.

cMYC [6] = assay: Western blot of RPMI8402 protein lysates: cMYC; format: cell-based, human; conditions: NOTCH positive leukemic cells, 1 μM, 24 hours, FIGS. 2 and 3
Procedure: as §1, §2, §7, §8, §9

NOTCH pathway = assay: Western blot, downregulation of NOTCH pathway (N1-ICD and cMYC), FIG. 2 and 3; format: cell-based, human; conditions: RPMI8402, 1 μM, 24 hours
Procedure: NOTCH positive human leukemic RPMI8402 cells were treated with 1 μM of 6-(4-tert-butylphenoxy)pyridin-3-amine and 6-([1,1′-Biphenyl]-4-yloxy)-N-methylpyridin-3-amine for 24 hours. Following treatment, total protein lysates were extracted and protein expression analysed by western blot.
NOTCH positive human leukemic RPMI8402 cells were treated with 1 μM of 6-(4-tert-butylphenoxy)pyridin-3-amine and 6-((4′-Fluoro-[1,1′-biphenyl]-4-yl)oxy)pyridin-3-amine, 6-([1,1′-Biphenyl]-4-yloxy)-4-methylpyridin-3-amine, 6-([1,1′-Biphenyl]-4-yloxy)-2-methylpyridin-3-amine and N-Methyl-6-((6-phenylpyridin-3-yl)oxy)pyridin-3-amine for 24 hours. Following treatment, total protein lysates were extracted and protein expression analysed by western blot.
as §1, §2, §7, §8

Row | Compound | IC50 [2] [nM] | fold change compared to 6-(4-tert-butylphenoxy)pyridin-3-amine (anti-proliferative IC50) [2] | IC50 [3] [nM] | Percentage improvement of compounds over 6-(4-tert-Butylphenoxy)pyridin-3-amine to downregulate NOTCH target genes (protein expression): cMYC (cMYC [1]) [%] | Percentage improvement of compounds over 6-(4-tert-Butylphenoxy)pyridin-3-amine to downregulate NOTCH target genes (protein expression): N1-ICD [4] [%] | further results
1 | CC(C)(C)c1ccc(Oc2ccc(N)cn2)cc1 [6-(4-tert-butylphenoxy)pyridin-3-amine, reference compound] | 740 | (1X) x | 740 | 100 | 100 | fold change compared to 6-(4-tert-butylphenoxy)pyridin-3-amine (anti-proliferative IC50) ([3]; RPMI8402, 72 hours): (1X) x
2 | CNc1ccc(Oc2ccc(-c3ccccc3)cc2)nc1 [Example 2, 6-([1,1′-Biphenyl]-4-yloxy)-N-methylpyridin-3-amine] | – | – | 110 | – | – | downregulation of N1-ICD compared to 6-(4-tert-butylphenoxy)pyridin-3-amine [5]: stronger downregulation; downregulation of cMYC compared to 6-(4-tert-butylphenoxy)pyridin-3-amine (cMYC [6]): stronger downregulation; potency in downregulating NOTCH pathway compared with 6-(4-tert-butylphenoxy)pyridin-3-amine (NOTCH pathway): enhanced potency
3 | CNc1ccc(Oc2ccc(-c3ccccc3)cc2)c(F)c1 [Example 6, 4-([1,1′-Biphenyl]-4-yloxy)-3-fluoro-N-methylaniline] | – | – | 700 | – | – | –
4 | Nc1ccc(Oc2ccc(-c3ccccc3)cc2)cc1 [Example 7, 4-([1,1′-Biphenyl]-4-yloxy)aniline] | – | – | 170 | – | – | –
5 | Cc1nc(Oc2ccc(-c3ccccc3)cc2)ccc1N [Example 8, 6-([1,1′-Biphenyl]-4-yloxy)-2-methylpyridin-3-amine] | – | – | 110 | – | – | downregulation of N1-ICD compared to 6-(4-tert-butylphenoxy)pyridin-3-amine [5]: stronger downregulation; downregulation of cMYC compared to 6-(4-tert-butylphenoxy)pyridin-3-amine (cMYC [6]): stronger downregulation; potency in downregulating NOTCH pathway compared with 6-(4-tert-butylphenoxy)pyridin-3-amine (NOTCH pathway): enhanced potency
6 | Nc1ccc(OCCc2cc(Oc3ccc(N)cn3)ccc2-c2ccccc2)cc1 [Example 22, 6-((2-(2-(4-Aminophenoxy)ethyl)-[1,1′-biphenyl]-4-yl)oxy)pyridin-3-amine] | – | – | 920 | – | – | –
7 | CNc1ccc(Oc2ccc(-c3ccc(F)cc3)cc2)nc1 [Example 27, 6-((4′-Fluoro-[1,1′-biphenyl]-4-yl)oxy)-N-methylpyridin-3-amine] | 200 | (3.7x) | – | 183 | 197 | –
8 | Cc1cc(Oc2ccc(-c3ccc(F)cc3)cc2)ncc1N [Example 29, 6-((4′-Fluoro-[1,1′-biphenyl]-4-yl)oxy)-4-methylpyridin-3-amine] | – | – | – | 183 | 192 | –
9 | Cc1cc(Oc2ccc(-c3ccccc3)nc2)ncc1N [Example 31, 4-Methyl-6-((6-phenylpyridin-3-yl)oxy)pyridin-3-amine] | – | – | – | 108 | 110 | –
10 | Cc1ccccc1-c1ccc(Oc2ccc(N)c(C)n2)cc1C [Example 37, 6-((2,2′-Dimethyl-[1,1′-biphenyl]-4-yl)oxy)-2-methylpyridin-3-amine] | – | – | – | 138 | 151 | –
11 | Nc1ccc(Cc2ccc(-c3ccc(F)cc3)cc2)cc1 [Example 59, 4-((4′-Fluoro-[1,1′-biphenyl]-4-yl)methyl)aniline] | – | – | – | 154 | 149 | –

The next lines start with results.

Row | IC50 [2] [nM] | fold change compared to 6-(4-tert-butylphenoxy)pyridin-3-amine (anti-proliferative IC50) [2] | IC50 [3] [nM] | Compound | Percentage improvement of compounds over 6-(4-tert-Butylphenoxy)pyridin-3-amine to downregulate NOTCH target genes (protein expression): cMYC (cMYC [1]) [%] | Percentage improvement of compounds over 6-(4-tert-Butylphenoxy)pyridin-3-amine to downregulate NOTCH target genes (protein expression): N1-ICD [4] [%] | further results
12 | < 30 | (>24x) | – | Cc1nc(Oc2ccc(-c3ccc(F)cc3)cc2)ccc1N [Example 28, 6-((4′-Fluoro-[1,1′-biphenyl]-4-yl)oxy)-2-methylpyridin-3-amine] | 170 | 173 | –
13 | 450 | (1.6x) | – | Cc1nc(Oc2ccc(-c3ccccc3)nc2)ccc1N [Example 30, 2-Methyl-6-((6-phenylpyridin-3-yl)oxy)pyridin-3-amine] | 159 | 159 | –
14 | 500 | (1.5x) | – | Cc1nc(Oc2ccc(-c3cncs3)cc2)ccc1N [Example 32, 2-Methyl-6-(4-(thiazol-5-yl)phenoxy)pyridin-3-amine] | 133 | 136 | –
15 | < 30 | (>24x) | – | Cc1cc(Oc2ccc(-c3cncs3)cc2)ncc1N [Example 33, 4-Methyl-6-(4-(thiazol-5-yl)phenoxy)pyridin-3-amine] | 130 | 132 | –
16 | 150 | (4.9x) | – | CNc1ccc(Oc2ccc(-c3cncs3)cc2)nc1 [Example 34, N-Methyl-6-(4-(thiazol-5-yl)phenoxy)pyridin-3-amine] | 115 | 114 | –
17 | < 30 | (>24x) | – | Cc1nc(Oc2ccc(-c3nccs3)cc2)ccc1N [Example 35, 2-Methyl-6-(4-(thiazol-2-yl)phenoxy)pyridin-3-amine] | 130 | 132 | –
18 | 50 | (14.8x) | – | Cc1cc(Oc2ccc(-c3nccs3)cc2)ncc1N [Example 36, 4-Methyl-6-(4-(thiazol-2-yl)phenoxy)pyridin-3-amine] | – | – | –
